In assay [1] the target is galanin receptors. The note with it: hypothalamus, ventral hippocampus, basal forebrain, spinal cord, pancreas and pituitary; cited from earlier work.
Assay [2] relates to human GALR3. In words: Specific binding of ^125I-galanin radioligands to membranes of COS-7 cells transfected with GALR3 clones, as a function of membrane protein. On the procedure:
Mammalian COS-7 cells were transfected by electroporation. COS-7 cells (1×10^7) were suspended in 0.85 ml of Ringers' buffer and […] of the GALR3-2 or GALR3—3 expression plasmid was added to a 0.4 mm electroporation cuvette (Bio-Rad, Hercules, Calif.). Current was applied ([…], 260 V) using a Bio-Rad Electroporator device and the cells were transferred to a T-180 flask (Corning). Expression was allowed to proceed for 72 hrs.
Membranes were prepared from transfected cells following dissociation in enzyme-free dissociation solution (Specialty Media, Lavallette, N.J.) by disruption in a Dounce homogenizer in ice-cold membrane buffer (10 mM Tris, pH 7.4, 10 mM PMSF, […], and […]). After a low speed (1100×g for 10 min. at 4° C.) and a high speed centrifugation (38,700×g for 15 min. at 4° C.), membranes were resuspended in buffer and protein concentration determined (Bio-Rad assay kit). […] Reactions were initiated by the addition of membranes and the incubation was allowed to proceed at room temperature for 1 hour. […] Titration of membrane protein from 1 to 50 μg was conducted. […] Incubations were terminated by rapid filtration through GF/C filters which had been presoaked with 0.1% polyethylamine using a TOMTEC (Orange, Conn.) cell harvester. The results were analyzed using the Prism software package (GraphPad, San Diego, Calif.).

Regarding ^125I-galanin, the Kd (commonly the equilibrium constant for the complex coming apart) in assay [1] is around 1 nM.

For the substance ^125I-human galanin, the “Specific binding of radioligand” value in assay [2] (Clone GALR3-3, membrane protein 5 μg) was 211 cpm; in assay [2] (Clone GALR3-3, membrane protein 10 μg), 407 cpm; in assay [2] (Clone GALR3-3, membrane protein 20 μg), 886 cpm; in assay [2] (Clone GALR3-3, membrane protein 50 μg), 2061 cpm.
